Results taken from patent US12122815B2, “GIP receptor agonist peptide compounds and uses thereof” (TAKEDA PHARMACEUTICAL COMPANY LIMITED, priority 2018, dated 2024).

Tests used:
[1] = molecular target: T1, human GIPR (Homo sapiens, UniProt P48546); experiment: Agonist activity on human GIPR, CRE-luciferase reporter assay with increase in intracellular cAMP as indicator (hGIPR/CRE-LUC/CHO-K1 cell); type: cell-based
T1 construct: FLAG (N)
T1 sequence (P48546 22-466): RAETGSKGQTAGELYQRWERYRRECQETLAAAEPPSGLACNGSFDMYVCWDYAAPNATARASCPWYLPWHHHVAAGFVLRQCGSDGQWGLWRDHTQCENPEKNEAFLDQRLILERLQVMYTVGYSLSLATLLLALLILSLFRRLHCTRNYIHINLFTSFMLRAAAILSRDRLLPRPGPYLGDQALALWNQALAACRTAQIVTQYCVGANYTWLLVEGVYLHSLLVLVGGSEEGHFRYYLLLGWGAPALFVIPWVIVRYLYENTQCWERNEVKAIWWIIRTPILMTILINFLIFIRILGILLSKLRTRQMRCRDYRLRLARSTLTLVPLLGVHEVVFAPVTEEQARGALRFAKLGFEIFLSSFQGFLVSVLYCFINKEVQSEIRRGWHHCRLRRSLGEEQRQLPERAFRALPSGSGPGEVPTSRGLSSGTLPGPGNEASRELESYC
Text: (§1) Evaluation of Agonist Activity on Human GIPR and Human GLP-1R with Increase in Intracellular cAMP Concentration as Indicator
(§2) A) Evaluation of Agonist Activity on Human GIPR and Human GLP-IR with Increase in Intracellular cAMP Concentration as Indicator
(1) Construction of Expression Plasmid of Human GIPR Gene. The Human GIPR Gene Having an Identical Sequence to Genebank Accession No. U39231 was Cloned into a pMSRα-Neo Vector to Prepare hGIPR/pMSRα-Neo.
(2) Construction of Reporter Plasmid Expressing Cell Luciferase Reporter Gene with a cAMP-Responsive Sequence Located Upstream was Transferred to a CHO-K1 Cell to Construct a CRE-LUC/CHO-K1 Cell.
(§3) (3) Construction of Reporter Plasmid
(§4) Four Copies of a cAMP responsive sequence and a Zeocin resistance gene were transferred to pGL3(R2.2)-Basic Vector (Promega) to construct a Cre-luc(Zeo) reporter plasmid.
(4) Transfer of Human GIPR Gene to CRE-LUC/CHO-K1 Cell and Obtaining of Expressing Cell the Plasmid hGIPR/pMSRα-Neo Obtained in (1) was Transferred to the CRELUC.
CHO-K1 cell obtained in (2) to obtain a transformant. Subsequently, the cell line inducing the luciferase expression, hGIPR/CRE-LUC/CHO-K1 cell, was selected from the obtained transformant by adding GIP.
25 μL each of the hGIPR/CRE-LUC/CHO-K1 cell was inoculated in a 384-well white plate (Corning) in such a way as to provide 5×10^3 cells/well and cultured in a HamF12 medium containing 10% fetal bovine serum, 100 U/mL penicillin, and 100 μg/mL streptomycin in a CO2 incubator at 37° C. overnight. 5 μL of a medium containing a test compound was added to the cells and incubated for 4 hours at the indicated concentration in a CO2 incubator at 37° C. […] 20 Minutes later, luciferase activity was measured using a plate reader Envision (PerkinElmer). The GIPR agonist activity was calculated with increase in intracellular cAMP concentration as the indicator when the luciferase activity in the presence of 10 nM of GIP was 100% and the luciferase activity in the case of adding DMSO instead of the test compound was 0%.

[2] = molecular target: T2, human GLP-1R (Homo sapiens, UniProt P43220); experiment: Agonist activity on human GLP-1R, CRE-luciferase reporter assay with increase in intracellular cAMP as indicator (hGLP-1R/CRE-luc/CHO-K1 cell); type: cell-based
T2 construct: FLAG (N)
T2 sequence (P43220 24-463): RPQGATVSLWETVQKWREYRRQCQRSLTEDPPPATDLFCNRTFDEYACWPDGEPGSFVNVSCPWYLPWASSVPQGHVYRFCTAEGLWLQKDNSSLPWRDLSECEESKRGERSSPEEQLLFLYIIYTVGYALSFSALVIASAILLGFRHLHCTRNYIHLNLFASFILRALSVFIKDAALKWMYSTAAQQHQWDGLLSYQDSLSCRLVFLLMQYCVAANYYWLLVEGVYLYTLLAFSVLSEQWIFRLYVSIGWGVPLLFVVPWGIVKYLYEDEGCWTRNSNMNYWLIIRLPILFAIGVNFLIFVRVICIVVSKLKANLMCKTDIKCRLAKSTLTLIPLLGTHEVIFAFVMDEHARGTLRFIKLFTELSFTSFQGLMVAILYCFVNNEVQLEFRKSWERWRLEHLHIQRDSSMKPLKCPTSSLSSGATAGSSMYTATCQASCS
Text: as §1, §2, §3, §4
(5) Construction of Expression Plasmid of Human GLP-1R Gene
The human GLP-IR gene having an identical sequence to Genebank Accession No. NM_002062 was cloned into a pIRESneo3 vector to prepare hGLP-1/pIRESneo3.
(6) Transfer of Human GLP-1R Gene and Reporter Plasmid to CHO-K1 Cell and Obtaining of Expressing Cell
The Cre-luc (Zeo) obtained in (3) and the plasmid hGLP-1/pIRESneo3 obtained in (5) were transferred to the CHO-K1 cell to obtain a transformant. Subsequently, the cell line inducing the luciferase expression, hGLP-1R/CRE-luc/CHO-K1 cell, was selected from the obtained transformant by adding GLP-1.
25 μL each of the hGIPR/CRE-LUC/CHO-K1 cell was inoculated in a 384-well white plate (Corning) in such a way as to provide 5×10^3 cells/well and cultured in a HamF12 medium containing 10% fetal bovine serum, 100 U/mL penicillin, and 100 μg/mL streptomycin in a CO2 incubator at 37° C. overnight. 5 μL of a medium containing a test compound was added to the cells and incubated for 4 hours at the indicated concentration in a CO2 incubator at 37° C. Steady-Glo (Promega) was added in amounts of 30 μL and shaken under light shielding. 20 Minutes later, luciferase activity was measured using a plate reader Envision (PerkinElmer). The GIPR agonist activity was calculated with increase in intracellular cAMP concentration as the indicator when the luciferase activity in the presence of 10 nM of GIP was 100% and the luciferase activity in the case of adding DMSO instead of the test compound was 0%.
The GLP-IR agonist activity was assayed in the same manner as above using the hGLP-1R/CRE-luc/CHO-K1 cell.

SMILES	EC50 [1] [nM]	EC50 [2] [nM]
CCCCCCCCCCCCCCCC(=O)NCCCC[C@H](NC(=O)[C@H](CO)NC(=O)[C@@H]1CCCN1C(=O)[C@@H]1CCCN1C(=O)[C@@H]1CCCN1C(=O)[C@H](C)NC(=O)CNC(=O)[C@H](CO)NC(=O)[C@H](CO)NC(=O)[C@@H]1CCCN1C(=O)CNC(=O)CNC(=O)[C@H](CCCCN)NC(=O)[C@H](CC(C)C)NC(=O)[C@H](CC(C)C)NC(=O)[C@H](Cc1c[nH]c2ccccc12)NC(=O)[C@H](CCCCN)NC(=O)[C@@H](NC(=O)[C@H](Cc1ccccc1)NC(=O)[C@H](CCC(=O)O)NC(=O)C(C)(C)NC(=O)[C@H](CCC(N)=O)NC(=O)[C@H](C)NC(=O)[C@H](CCC(N)=O)NC(=O)[C@H](CCCCN)NC(=O)[C@H](CC(=O)O)NC(=O)[C@H](CC(C)C)NC(=O)[C@H](CC(C)C)NC(=O)[C@@H](NC(=O)[C@H](CO)NC(=O)[C@H](Cc1ccc(O)cc1)NC(=O)[C@H](CC(=O)O)NC(=O)[C@H](CO)NC(=O)[C@H](CCCCN)NC(=O)[C@@H](NC(=O)[C@@H](NC(=O)CNC(=O)[C@H](CCC(=O)O)NC(=O)C(C)(C)NC(=O)[C@@H](N)Cc1ccc(O)cc1)[C@@H](C)O)C(C)C)[C@@H](C)CC)C(C)C)C(N)=O [Compound 10]	0.03	210
CCCCCCCCCCCCCCCC(=O)NCCCC[C@H](NC(=O)[C@H](CO)NC(=O)[C@@H]1CCCN1C(=O)[C@@H]1CCCN1C(=O)[C@@H]1CCCN1C(=O)[C@H](C)NC(=O)CNC(=O)[C@H](CO)NC(=O)[C@H](CO)NC(=O)[C@@H]1CCCN1C(=O)[C@H](CCCCN)NC(=O)[C@H](CCC(N)=O)NC(=O)[C@H](C)NC(=O)[C@H](CC(C)C)NC(=O)[C@H](CC(C)C)NC(=O)[C@H](Cc1c[nH]c2ccccc12)NC(=O)[C@H](CC(N)=O)NC(=O)[C@@H](NC(=O)[C@H](Cc1ccccc1)NC(=O)[C@H](CC(=O)O)NC(=O)[C@H](CCC(N)=O)NC(=O)[C@H](CCC(N)=O)NC(=O)[C@H](Cc1c[nH]cn1)NC(=O)[C@@H](NC(=O)[C@H](CCCCN)NC(=O)[C@H](CC(=O)O)NC(=O)[C@H](CCSC)NC(=O)[C@H](C)NC(=O)[C@@H](NC(=O)[C@H](CO)NC(=O)[C@H](Cc1ccc(O)cc1)NC(=O)[C@H](CC(=O)O)NC(=O)[C@H](CO)NC(=O)[C@@H](NC(=O)[C@H](Cc1ccccc1)NC(=O)[C@@H](NC(=O)CNC(=O)[C@H](CCC(=O)O)NC(=O)[C@H](C)NC(=O)[C@@H](N)Cc1ccc(O)cc1)[C@@H](C)O)[C@@H](C)CC)[C@@H](C)CC)[C@@H](C)CC)C(C)C)C(N)=O [Compound 12]	–	86
CCCCCCCCCCCCCCCCCCCC(=O)NCC(=O)NCC(=O)NCC(=O)NCC(=O)NCCCC[C@H](NC(=O)[C@H](CO)NC(=O)[C@@H]1CCCN1C(=O)[C@@H]1CCCN1C(=O)[C@@H]1CCCN1C(=O)[C@H](C)NC(=O)CNC(=O)[C@H](CO)NC(=O)[C@H](CO)NC(=O)[C@@H]1CCCN1C(=O)CNC(=O)CNC(=O)[C@H](CCCCN)NC(=O)[C@H](CC(C)C)NC(=O)[C@H](CC(C)C)NC(=O)[C@H](Cc1c[nH]c2ccccc12)NC(=O)[C@H](CCCCN)NC(=O)[C@@H](NC(=O)[C@H](Cc1ccccc1)NC(=O)[C@H](CCC(=O)O)NC(=O)C(C)(C)NC(=O)[C@H](CCC(N)=O)NC(=O)[C@H](C)NC(=O)[C@H](CCC(N)=O)NC(=O)[C@H](CCCCN)NC(=O)[C@H](CC(=O)O)NC(=O)[C@H](CC(C)C)NC(=O)[C@H](CC(C)C)NC(=O)[C@@H](NC(=O)[C@H](CO)NC(=O)[C@H](Cc1ccc(O)cc1)NC(=O)[C@H](CC(=O)O)NC(=O)[C@H](CO)NC(=O)[C@H](CCCCN)NC(=O)[C@@H](NC(=O)[C@@H](NC(=O)CNC(=O)[C@H](CCC(=O)O)NC(=O)C(C)(C)NC(=O)[C@@H](N)Cc1ccc(O)cc1)[C@@H](C)O)C(C)C)[C@@H](C)CC)C(C)C)C(N)=O [Compound 8]	0.04	180
CC[C@H](C)[C@H](NC(=O)[C@H](CO)NC(=O)[C@H](Cc1ccc(O)cc1)NC(=O)[C@H](CC(=O)O)NC(=O)[C@H](CO)NC(=O)[C@H](CCCCN)NC(=O)[C@@H](NC(=O)[C@@H](NC(=O)CNC(=O)[C@H](CCC(=O)O)NC(=O)C(C)(C)NC(=O)[C@@H](N)Cc1ccc(O)cc1)[C@@H](C)O)C(C)C)C(=O)N[C@@H](CC(C)C)C(=O)N[C@@H](CC(C)C)C(=O)N[C@@H](CC(=O)O)C(=O)N[C@@H](CCCCN)C(=O)N[C@@H](CCC(N)=O)C(=O)N[C@@H](C)C(=O)N[C@@H](CCC(N)=O)C(=O)NC(C)(C)C(=O)N[C@@H](CCC(=O)O)C(=O)N[C@@H](Cc1ccccc1)C(=O)N[C@H](C(=O)N[C@@H](CCCCN)C(=O)N[C@@H](Cc1c[nH]c2ccccc12)C(=O)N[C@@H](CC(C)C)C(=O)N[C@@H](CC(C)C)C(=O)N[C@@H](CCCCN)C(=O)NCC(=O)NCC(=O)N1CCC[C@H]1C(=O)N[C@@H](CO)C(=O)N[C@@H](CO)C(=O)NCC(=O)N[C@@H](C)C(=O)N1CCC[C@H]1C(=O)N1CCC[C@H]1C(=O)N1CCC[C@H]1C(=O)N[C@@H](CO)C(=O)N[C@@H](CCCCNC(=O)CCCCCCCCCCCCCCC(=O)O)C(N)=O)C(C)C [Compound 11]	0.1	180
